{
  "source": "patent US11612601B1",
  "about": "“Targeting epidermal growth factor to treat vascular calcification” (THE FLORIDA INTERNATIONAL UNIVERSITY BOARD OF TRUSTEES, priority 2022, dated 2023)",
  "key": {"[1]": {"test_system": "CKD mice", "assay": "EVs isolated from mouse aortas: CAV1 immunoblot and TNAP activity", "assay_type": "in vivo", "conditions": "CKD mice treated vs CKD", "description": "Immediately after scanning, the tissue was incubated in a digestive solution of sucrose (0.25 M, Sigma, S7903), NaCl (0.12 M, Fisher Chemical, BP358), KCl (0.01 M, Fisher Chemical, P217), Tris hydrochloride (0.02 M, Fisher Chemical, BP153), and collagenase (600 U/mL, Worthington Biochemical, LS004174) for 2 hours at 37° C. The solution was then centrifuged at 1,000×g for 15 min to remove cell debris and at 33,000×g for 30 min to remove microvesicles. Finally, the supernatants were ultracentrifuged (Beckman Coulter, Optima MAX-TL) at 100,000×g for 1 hour to isolate the EVs of interest. The pellet was suspended in RIPA lysis and extraction buffer (G Biosciences, 786-489) supplemented with pierce protease inhibitor (Thermo Scientific, A32963). To yield sufficient protein concentration for analysis, EVs isolated from 2 to 3 aortas were pooled.\n(§1) For EV TNAP activity measurement, after ultracentrifugation at 100,000×g for 1 hour, the pellets were re-suspended in 120 μL buffer assay. […]\n(§2) To quantify the total protein, the membranes were stained using 2% w/v Ponceau stain (Alfa Aesar, AAJ6074409) for 20 min, followed by one wash with 5% acetic acid and milliQ water for 5 min. After imaging, the intensity of each lane was measured in ImageJ for total protein normalization. […] The protein bands were visualized with Odyssey CLx scanner (Li-Cor), and quantified using Image Studio Lite software (Li-Cor)."}, "[2]": {"test_system": "Primary human coronary artery vascular smooth muscle cells", "assay": "EVs isolated from VSMC cultures: protein immunoblot and TNAP activity", "assay_type": "cell-based", "description": "To assess the role of EGFR inhibition, tyrphostin AG1478 (Millipore Sigma, T4182) was dissolved in vehicle (DMSO:Methanol, 1:1) and added to OS media to a final concentration of 2.5 μM. An equal volume of vehicle was added to the control and OS groups. It shown that 28 days in OS culture media led to robust calcification by VSMCs; therefore, all cultures (n=3, independent donors, male and female) were treated for 28 days and media were replaced every three days. On days 6, 13, 20, and 27 the media were replaced by an extracellular-vesicle-free (EV-free) media (ultracentrifuged for 15 hours at 100,000×g at 4° C. to remove background EVs common in the serum). After 24 hours, conditioned media were collected on days 7, 14, 21, and 28. Collected media were centrifuged at 1,000×g for 5 min to remove cell debris. EV isolation was performed using ultracentrifugation (Beckman Coulter, Optima MAX-TL) at 100,000×g for 1 hour.\nFor EV TNAP activity measurement, after ultracentrifugation at 100,000×g for 1 hour, the pellets were re-suspended in 120 μL buffer assay. The assessment was performed using the same assay protocol described for intracellular TNAP activity and the results were normalized to the total protein for each sample. For mice serum TNAP activity, the samples were diluted 1:20 and assessment was performed according to the manufacturer's protocol.\nVSMCs, osteoblasts, isolated EVs (either from cells or mouse aortas), and matrix vesicles (from osteoblasts) were lysed in RIPA lysis and extraction buffer supplemented with protease inhibitor. After adding Laemmli SDS-sample buffer (1:4 v/v, Boston BioProducts, BP-110R) to each lysate, the samples were denatured at 100° C. for 10 min, loaded into 7.5-12% 1-mm SDS-PAGE gel (15 to 20 μg protein per lane), and run at 170 V. The proteins were then transferred to Trans-Blot turbo nitrocellulose membranes (BIO-RAD, 1704158) at 25 V for 7 min.\nTo quantify the total protein, the membranes were stained using 2% w/v Ponceau stain (Alfa Aesar, AAJ6074409) for 20 min, followed by one wash with 5% acetic acid and milliQ water for 5 min. After imaging, the intensity of each lane was measured in ImageJ for total protein normalization. Membranes were blocked with 5% w/v bovine serum albumin (HyClone, SH30574.01) in TBS-Tween (1×) for 1 hour. The membranes were incubated with primary antibodies of interest, including CAV1 (1:200, Abcam, ab2910), TNAP (1:200, Invitrogen, 702454), EGFR ([…], EMD Millipore, 06-874), CD63 (1:200, Abeam, ab231975), GAPDH (1:100, Abcam, ab181602), and Annexin V (1:200, proteintech, 11060-1-AP) overnight at 4° C. After three washes with TBS-Tween (1×), the membranes were incubated with secondary antibody (1:1000, Li-Cor) for 1 hour, followed by three washes with TBS-Tween (1×). The protein bands were visualized with Odyssey CLx scanner (Li-Cor), and quantified using Image Studio Lite software (Li-Cor)."}, "[3]": {"test_system": "Osteoblasts (hFOB 1.19)", "assay": "Matrix vesicles from osteoblast cultures: CAV1 and TNAP activity", "assay_type": "cell-based, human", "conditions": "OS + 2.5 μM", "description": "Osteoblasts (from human fetus, hFOB 1.19, ATCC, CRL-11372) were cultured and grown in DMEM containing 10% v/v bovine calf serum and 1% v/v penicillin-streptomycin. Osteoblasts (passage 4-6) were harvested using 0.25% trypsin-EDTA solution (Caisson Labs, TRL01), seeded with a density of 5,200 cell.cm^−2, and incubated for 24 hours at 37° C. and 5% CO2 with controlled humidity. The cells were treated in three groups of control, OS, and OS supplemented with tyrphostin AG1478 (2.5 μM) for 21 days and media changed every three days. […] Similar to the VSMC experiments, EV-free media were added to the cultures on days 6, 13, and 20, and collected 24 hours later on days 7, 14, and 21. Collected media were centrifuged at 1,000×g for 5 min to remove cell debris. EVs were isolated using the ultracentrifugation at 100,000×g for 1 hour.\nas §1, §2"}},
  "data": [
    {"smiles": "COc1cc2ncnc(Nc3cccc(Cl)c3)c2cc1OC", "note": "[AG1478, tyrphostin AG1478]", "values": [
      {"measurement": "CAV1 protein on EVs isolated from aortas", "setting": "[1]; p<0.0001", "result": "significantly lower"},
      {"measurement": "TNAP activity of EVs isolated from aortas", "setting": "[1]; p=0.003", "result": "significantly lower"},
      {"measurement": "level of CD63 on EVs from VSMCs", "setting": "[2]; 28 days of culture, across in vitro groups, p=0.9", "result": "preserved"},
      {"measurement": "level of Annexin V on EVs from VSMCs", "setting": "[2]; OS + 2.5 μM, day 28", "result": "reduced levels"},
      {"measurement": "level of EGFR on EVs from VSMCs", "setting": "[2]; OS + 2.5 μM, day 28", "result": "reduced levels"},
      {"measurement": "EV TNAP activity (VSMC cultures)", "setting": "[2]; OS + 2.5 μM, days 14, 21, 28", "result": "reduced"},
      {"measurement": "release of CAV1-positive EVs by VSMCs", "setting": "[2]; OS + 2.5 μM, days 14, 21, 28", "result": "reduced"},
      {"measurement": "CD63 protein within EVs from vascular SMCs", "setting": "[2]; pro-calcific media + 2.5 μM, 14 days, vs control and pro-calcific media", "result": "no differences"},
      {"measurement": "CAV1 protein on matrix vesicles released by osteoblasts", "setting": "[3]; compared to control, days 14 and 21", "result": "lower levels"},
      {"measurement": "TNAP activity of matrix vesicles released by osteoblasts", "setting": "[3]; days 7, 14, 21", "result": "significantly increased"}
    ]}
  ]
}
